Consider one substance from patent publication US20080226587A1, “METHODS AND COMPOSITIONS FOR IMMUNOMODULATION” (priority 2006, published 2008).

The subject of the experiment is DDM-reactive J.RT3/CD8-2 cells. As to the kind of experiment: T cell stimulation by DDM after proteinase K or pronase treatment. Particulars: 4 hours at 40° C. It is filed as cell-based. The text has this: FIG. 4B is a graph depicting the proliferative response of DDM-reactive J.RT3/CD8-2 cells stimulated in the presence of mock treated DDM, DDM treated with proteinase K, DDM treated with pronase, or no antigen.
The Nex antigen is the second peptidic antigen shown to be presented by CD1. The other one, DDM, is presented by CD1a. Although processing of proteins for presentation on MHC Class I and Class II molecules is well characterized, little is known about processing of CD1-presented peptides. […] DDM has no such cleavage sites for proteases. To examine the protease sensitivity of Nex, Nex and DDM were treated with non-specific proteases and T cell stimulation by each antigen was examined.
Pronase is a mixture of endopeptidases and exopeptidases (carboxypeptidases and aminopeptidases) which digests denatured and native proteins into individual amino acids. Proteinase K is an endopeptidase with a preference for cleavage between an aliphatic, aromatic, or hydrophobic and any other amino acid, however, it will digest any peptidic bond if added in excess and over long incubation periods. […]
To test whether treated Nex mixtures were toxic to T cells, T cell stimulation was measured in the presence of a high concentration (10 μg/ml) of treated Nex and a suboptimal concentration of untreated Nex. […]

As to didehydroxymycobactin [DDM], the “ability to stimulate T cell proliferation after protease treatment” value is “did not diminish”.
